Converted amounts (≈) assume the structure as drawn.
Tests used:
Format in all cases: organism-based
Details in all cases: in vivo
[1] = Toxicity in Artemia salina
Biomphalaria glabrata = assay: Molluscicidal activity against Biomphalaria glabrata after 24 hrs
[2] = Ichthyotoxicity in Carassius auratus

Structure (SMILES) | LC50 [2] [µg/mL] | further results
C=CC[C@@H](CC/C(C)=C/C=C/CC/C=C\[C@@H]1CSC([C@@H]2C[C@@H]2C)=N1)OC [CURACIN A] |  | LC50 [1]: 2.5 ng/mL (≈ 0.00669 µM)
CO/C(=C/C(=O)N(C)C(Cc1ccccc1)c1nccs1)CC(C)C(Cl)(Cl)Cl (centres undefined) [BARBAMIDE] |  | LC100 (Biomphalaria glabrata): 100 µg/mL
C=C(CCNC(=O)CC/C=C/C[C@H](CCCCCCC)OC)[C@@]12O[C@@H]1CC=C(C)C2=O [MALYNGAMIDE H] | 5 (≈ 11.6 µM) | 
C=C1CC(=O)N[C@@H](C)C(=O)N(C)[C@@H](C(C)C)C(=O)NCC(=O)O[C@@H](/C(C)=C/C(C)=C/C(C)(C)C)[C@@H]1C [ANTILLATOXIN] | 0.05 (≈ 0.0993 µM) | 

Source: ChEMBL document CHEMBL1158201, “Barbamide, a chlorinated metabolite with molluscicidal activity from the Caribbean cyanobacterium Lyngbya majuscula” (J Nat Prod, 1996)
